Data from the NIST ThermoML archive (doi:10.1021/je201102x).

Experiment: xn = mol fraction of the nth substance listed
Conditions: 101 kPa, Liquid, Vibrating tube method

CC(C)CO [2-methyl-1-propanol] + CC(=O)O
mass density [kg/m3]
Conditions	293.15 K	298.15 K	303.15 K	313.15 K	323.15 K	333.15 K
x2 = 0.0813	814.94	810.95	806.92	798.73	790.31	781.64
x2 = 0.1574	827.82	823.71	819.56	811.15	802.54	793.68
x2 = 0.2405	842.93	838.69	834.42	825.76	816.92	807.86
x2 = 0.319	858.14	853.78	849.39	840.5	831.45	822.19
x2 = 0.4018	875.36	870.87	866.35	857.21	847.92	838.44
x2 = 0.4803	892.9	888.27	883.63	874.24	864.7	855.01
x2 = 0.5599	911.99	907.22	902.44	892.78	883	873.07
x2 = 0.6396	932.48	927.56	922.63	912.7	902.65	892.49
x2 = 0.7199	954.87	949.79	944.71	934.47	924.16	913.72
x2 = 0.7998	979.04	973.8	968.56	958.02	947.4	936.71
x2 = 0.8786	1004.98	999.57	994.16	983.31	972.4	961.43
x2 = 0.9595	1033.93	1028.35	1022.77	1011.59	1000.4	989.16
